From the supplement of paper PMC10307832

Experiments:
Assay in all cases: relative viability (nuclei count vs DMSO), 5 days (fraction); higher = more cells survive
[1] = compound: C=CCNC1=C2C[C@@H](C)C[C@H](OC)[C@H](O)[C@@H](C)/C=C(\C)[C@H](OC(N)=O)[C@@H](OC)/C=C\C=C(/C)C(=O)NC(=CC1=O)C2=O [17-AAG]
Outline: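 For viability, nuclei in each treated well were divided by nuclei in vehicle wells and the median across plates was taken. Lung cancer cell lines in 1536-well plates were pinned with five library-drug doses (not always all listed) spaced by √10, cultured 5 days without medium change, and imaged at 4× after Hoechst staining, with plates passing only at control CV below 25% and at least one doubling.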

[2] = compound: C=CCNC1=C2C[C@@H](C)C[C@H](OC)[C@H](O)[C@@H](C)/C=C(\C)[C@H](OC(N)=O)[C@@H](OC)/C=C\C=C(/C)C(=O)NC(=CC1=O)C2=O [17-AAG] + CC1(C)CCC(c2ccc(Cl)cc2)=C(CN2CCN(c3ccc(C(=O)NS(=O)(=O)c4ccc(N[C@H](CCN5CCOCC5)CSc5ccccc5)c(S(=O)(=O)C(F)(F)F)c4)cc3)CC2)C1 [Navitoclax] (partner 0.5 µM)
Outline: (§1)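 For relative viability, nuclei counts in treated wells were divided by those in vehicle wells. Lung cancer cell lines had been pin-tool dosed in 1536-well plates the day after seeding and cultured for 5 days, then fixed and stained in one step (final 0.05% Triton X-100, 1% formaldehyde, 1 ug/ml Hoechst) and imaged at 4×. Doses were one drug alone or a fixed anchor-drug dose plus five library-drug doses (not always all listed) in √10 steps, and values are duplicate-plate medians.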

[3] = compound: C=CCNC1=C2C[C@@H](C)C[C@H](OC)[C@H](O)[C@@H](C)/C=C(\C)[C@H](OC(N)=O)[C@@H](OC)/C=C\C=C(/C)C(=O)NC(=CC1=O)C2=O [17-AAG] + COc1cc2c(Oc3ccc(NC(=O)C4(C(=O)Nc5ccc(F)cc5)CC4)cc3F)ccnc2cc1OCCCN1CCOCC1 [Foretinib] (partner 0.25 µM)
Outline: as §1

[4] = compound: C=CCNC1=C2C[C@@H](C)C[C@H](OC)[C@H](O)[C@@H](C)/C=C(\C)[C@H](OC(N)=O)[C@@H](OC)/C=C\C=C(/C)C(=O)NC(=CC1=O)C2=O [17-AAG] + CS(=O)(=O)CCNCc1ccc(-c2ccc3ncnc(Nc4ccc(OCc5cccc(F)c5)c(Cl)c4)c3c2)o1 [Lapatinib] (partner 2 µM)
Outline: as §1

[5] = compound: C=CCNC1=C2C[C@@H](C)C[C@H](OC)[C@H](O)[C@@H](C)/C=C(\C)[C@H](OC(N)=O)[C@@H](OC)/C=C\C=C(/C)C(=O)NC(=CC1=O)C2=O [17-AAG] + CS(=O)(=O)N1CCN(Cc2cc3nc(-c4cccc5[nH]ncc45)nc(N4CCOCC4)c3s2)CC1 [Pictilisib] (partner 1 µM)
Outline: as §1

[6] = compound: C=CCNC1=C2C[C@@H](C)C[C@H](OC)[C@H](O)[C@@H](C)/C=C(\C)[C@H](OC(N)=O)[C@@H](OC)/C=C\C=C(/C)C(=O)NC(=CC1=O)C2=O [17-AAG] + C[C@@H](Oc1cc(-c2cnn(C3CCNCC3)c2)cnc1N)c1c(Cl)ccc(F)c1Cl [Crizotinib] (partner 1 µM)
Outline: as §1

[7] = compound: C=CCNC1=C2C[C@@H](C)C[C@H](OC)[C@H](O)[C@@H](C)/C=C(\C)[C@H](OC(N)=O)[C@@H](OC)/C=C\C=C(/C)C(=O)NC(=CC1=O)C2=O [17-AAG] + C[C@]1(O)C[C@@H](c2nc(-c3ccc4ccc(-c5ccccc5)nc4c3)c3c(N)nccn32)C1 [Linsitinib] (partner 1 µM)
Outline: as §1

[8] = compound: C=CCNC1=C2C[C@@H](C)C[C@H](OC)[C@H](O)[C@@H](C)/C=C(\C)[C@H](OC(N)=O)[C@@H](OC)/C=C\C=C(/C)C(=O)NC(=CC1=O)C2=O [17-AAG] + Cc1nc(NC(=O)N2CCC[C@H]2C(N)=O)sc1-c1ccnc(C(C)(C)C(F)(F)F)c1 [Alpelisib] (partner 2 µM)
Outline: as §1

[9] = compound: C=CCNC1=C2C[C@@H](C)C[C@H](OC)[C@H](O)[C@@H](C)/C=C(\C)[C@H](OC(N)=O)[C@@H](OC)/C=C\C=C(/C)C(=O)NC(=CC1=O)C2=O [17-AAG] + N=C(N)NC(=N)NCCc1ccccc1 [Phenformin] (partner 250 µM)
Outline: as §1

[10] = compound: C=CCNC1=C2C[C@@H](C)C[C@H](OC)[C@H](O)[C@@H](C)/C=C(\C)[C@H](OC(N)=O)[C@@H](OC)/C=C\C=C(/C)C(=O)NC(=CC1=O)C2=O [17-AAG] + Nc1ncn([C@H]2C[C@H](O)[C@@H](CO)O2)c(=O)n1 [Decitabine] (partner 2 µM)
Outline: as §1

[11] = compound: C=CCNC1=C2C[C@@H](C)C[C@H](OC)[C@H](O)[C@@H](C)/C=C(\C)[C@H](OC(N)=O)[C@@H](OC)/C=C\C=C(/C)C(=O)NC(=CC1=O)C2=O [17-AAG] + O=C(c1cc(Cc2n[nH]c(=O)c3ccccc23)ccc1F)N1CCN(C(=O)C2CC2)CC1 [Olaparib] (partner 8 µM)
Outline: as §1

Question: With A549 as the cell line, how does the relative viability ([1]; 0.00128 µM) read?
Answer: 0.948

Question: And the relative viability ([1]; 0.004048 µM)?
Answer: 0.86

Question: And the relative viability ([1]; 0.0128 µM)?
Answer: 0.115

Question: What about the relative viability ([1]; 0.04048 µM) of the same cell line?
Answer: 0.0515

Question: What about the relative viability ([1]; 0.128 µM) of the same cell line?
Answer: 0.0401

Question: And the relative viability ([2]; first compound 0.00128 µM)?
Answer: 1.13

Question: What about the relative viability ([2]; first compound 0.004048 µM) of the same cell line?
Answer: 0.542

Question: And the relative viability ([2]; first compound 0.0128 µM)?
Answer: 0.0729

Question: What about the relative viability ([2]; first compound 0.04048 µM) of the same cell line?
Answer: 0.0453

Question: And the relative viability ([2]; first compound 0.128 µM)?
Answer: 0.044

Question: What about the relative viability ([3]; first compound 0.00128 µM) of the same cell line?
Answer: 0.963

Question: What about the relative viability ([3]; first compound 0.004048 µM) of the same cell line?
Answer: 0.815

Question: And the relative viability ([3]; first compound 0.0128 µM)?
Answer: 0.55

Question: And the relative viability ([3]; first compound 0.04048 µM)?
Answer: 0.0245

Question: What about the relative viability ([3]; first compound 0.128 µM) of the same cell line?
Answer: 0.0282

Question: And the relative viability ([4]; first compound 0.00128 µM)?
Answer: 0.99

Question: And the relative viability ([4]; first compound 0.004048 µM)?
Answer: 0.548

Question: What about the relative viability ([4]; first compound 0.0128 µM) of the same cell line?
Answer: 0.129

Question: And the relative viability ([4]; first compound 0.04048 µM)?
Answer: 0.0692

Question: And the relative viability ([4]; first compound 0.128 µM)?
Answer: 0.0593

Question: What about the relative viability ([5]; first compound 0.00128 µM) of the same cell line?
Answer: 0.543

Question: What about the relative viability ([5]; first compound 0.004048 µM) of the same cell line?
Answer: 0.114

Question: And the relative viability ([5]; first compound 0.0128 µM)?
Answer: 0.0532

Question: And the relative viability ([5]; first compound 0.04048 µM)?
Answer: 0.0751

Question: And the relative viability ([5]; first compound 0.128 µM)?
Answer: 0.0642

Question: And the relative viability ([6]; first compound 0.00128 µM)?
Answer: 0.666

Question: What about the relative viability ([6]; first compound 0.004048 µM) of the same cell line?
Answer: 0.372

Question: What about the relative viability ([6]; first compound 0.0128 µM) of the same cell line?
Answer: 0.0579

Question: What about the relative viability ([6]; first compound 0.04048 µM) of the same cell line?
Answer: 0.0609

Question: What about the relative viability ([6]; first compound 0.128 µM) of the same cell line?
Answer: 0.0363

Question: What about the relative viability ([7]; first compound 0.00128 µM) of the same cell line?
Answer: 0.646

Question: What about the relative viability ([7]; first compound 0.004048 µM) of the same cell line?
Answer: 0.487

Question: And the relative viability ([7]; first compound 0.0128 µM)?
Answer: 0.371

Question: What about the relative viability ([7]; first compound 0.04048 µM) of the same cell line?
Answer: 0.105

Question: What about the relative viability ([7]; first compound 0.128 µM) of the same cell line?
Answer: 0.0473

Question: And the relative viability ([8]; first compound 0.00128 µM)?
Answer: 0.777

Question: And the relative viability ([8]; first compound 0.004048 µM)?
Answer: 0.189

Question: And the relative viability ([8]; first compound 0.0128 µM)?
Answer: 0.0463

Question: What about the relative viability ([8]; first compound 0.04048 µM) of the same cell line?
Answer: 0.056

Question: What about the relative viability ([8]; first compound 0.128 µM) of the same cell line?
Answer: 0.0402

Question: What about the relative viability ([9]; first compound 0.00128 µM) of the same cell line?
Answer: 0.154

Question: What about the relative viability ([9]; first compound 0.004048 µM) of the same cell line?
Answer: 0.0295

Question: And the relative viability ([9]; first compound 0.0128 µM)?
Answer: 0.0354

Question: What about the relative viability ([9]; first compound 0.04048 µM) of the same cell line?
Answer: 0.0477

Question: What about the relative viability ([9]; first compound 0.128 µM) of the same cell line?
Answer: 0.03

Question: And the relative viability ([10]; first compound 0.00128 µM)?
Answer: 0.123

Question: And the relative viability ([10]; first compound 0.004048 µM)?
Answer: 0.271

Question: What about the relative viability ([10]; first compound 0.0128 µM) of the same cell line?
Answer: 0.128

Question: What about the relative viability ([10]; first compound 0.04048 µM) of the same cell line?
Answer: 0.0399

Question: What about the relative viability ([10]; first compound 0.128 µM) of the same cell line?
Answer: 0.0274

Question: And the relative viability ([11]; first compound 0.00128 µM)?
Answer: 0.336

Question: What about the relative viability ([11]; first compound 0.004048 µM) of the same cell line?
Answer: 0.338

Question: What about the relative viability ([11]; first compound 0.0128 µM) of the same cell line?
Answer: 0.0515

Question: And the relative viability ([11]; first compound 0.04048 µM)?
Answer: 0.0272

Question: And the relative viability ([11]; first compound 0.128 µM)?
Answer: 0.0363
